From patent US9629828B2, “Methods of treating traveler's diarrhea and hepatic encephalopathy” (priority 2008, dated 2017)

Assays:
patients with HE [1] = type: in vivo, human
From the text: Total number of hospitalizations, duration of hospitalizations, HE endpoints, and cost of therapy were compared between the 2 treatment regimens.

[2] = tested on: liver transplant patients who presented with HE; experiment: Chart review of 39 liver transplant patients with HE; type: in vivo, human
[3] = male, human, in vivo
patients with HE [4] = conditions: rifaximin 1200 mg/day, neomycin 3 g/day; cited from earlier work

Q: With `OC[C@H]1O[C@@H](O[C@@H]2[C@@H](CO)OC(O)(CO)[C@H]2O)[C@H](O)[C@@H](O)[C@H]1O` (mixture of isomers) [lactulose] as the molecule, how does the “patients with Conn scores of 3 or 4” value (patients with HE [1]; end of treatment period) read?
A: 25%

Q: What about the days hospitalized (patients with HE [1]; human, in vivo) of the same molecule?
A: 7.3 days

Q: And the “patients with asterixis at end of treatment period” value (patients with HE [1]; human, in vivo)?
A: 93%

Q: What about the “patients with diarrhea, flatulence, and abdominal pain” value (patients with HE [1]; human, in vivo) of the same molecule?
A: significantly more patients

Q: And the hospitalizations (patients with HE [1]; rifaximin 400 mg 3 times/day, lactulose 30 mL twice daily)?
A: 1.6

Q: And the hospitalizations reported ([2]; 15 rifaximin, 24 lactulose patients)?
A: Nineteen

Q: And the “average length of stay” value ([2]; human, in vivo)?
A: 5.0 days

Q: For `CO[C@H]1/C=C/O[C@@]2(C)Oc3c(C)c(O)c4c(O)c(c5c(nc6cc(C)ccn65)c4c3C2=O)NC(=O)/C(C)=C\C=C\[C@H](C)[C@H](O)[C@@H](C)[C@@H](O)[C@@H](C)[C@H](OC(C)=O)[C@@H]1C` [14C-Rifaximin], which “amount of radioactivity in urine (bound)” value [3] is on record?
A: < 0.4 % of the dose

Q: Which “efficacy in patients with HE” value (patients with HE [4]) does the source give for neomycin here?
A: comparable efficacy
